This note sets out measurements from patent US8232308B2, “Methods for treating a disease in which Rho kinase is involved” (UBE Industries, Ltd., priority 2003, dated 2012).

Structures are written as SMILES. pKi: −log10 of the molar value. Where a name gives a salt, the structure may show the parent alone.

T1 sequence (Q62868 11-550 limits assumed): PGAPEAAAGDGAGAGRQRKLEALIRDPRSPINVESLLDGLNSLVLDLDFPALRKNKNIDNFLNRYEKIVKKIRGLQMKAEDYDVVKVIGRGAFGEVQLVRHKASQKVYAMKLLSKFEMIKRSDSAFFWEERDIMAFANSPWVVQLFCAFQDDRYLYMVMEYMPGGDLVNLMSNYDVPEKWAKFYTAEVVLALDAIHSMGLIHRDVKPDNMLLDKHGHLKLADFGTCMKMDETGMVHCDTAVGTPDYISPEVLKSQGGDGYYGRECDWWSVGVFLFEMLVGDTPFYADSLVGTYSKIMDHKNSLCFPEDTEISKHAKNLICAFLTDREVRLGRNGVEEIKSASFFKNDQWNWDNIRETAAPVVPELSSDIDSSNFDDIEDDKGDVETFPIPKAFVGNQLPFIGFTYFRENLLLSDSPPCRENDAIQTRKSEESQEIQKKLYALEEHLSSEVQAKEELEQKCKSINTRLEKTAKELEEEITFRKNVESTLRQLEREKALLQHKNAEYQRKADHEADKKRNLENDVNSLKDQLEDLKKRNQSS

One series addresses T1, activated ROCK II (Rattus norvegicus, UniProt Q62868).
T1 construct: purchased Upstate Biotechnology 14-338
Description: Test for Evaluation of Inhibiting Activity to Rho Kinase. Format: biochemical. The following applies: S6 Kinase Substrate Peptide, [γ-32P]ATP, 30° C. for 15 minutes, Ki=IC50/(1+S/Km).
The pKi is the negative decadic logarithm of the Ki, by convention in mol/L. Higher therefore signals a low Ki. In turn, `CC(C)(N)c1ccc(-c2ccc3[nH]ncc3c2OCC2CC2)nc1.Cl.Cl.Cl` [Compound 5-73, 5-[5-(1-Amino-1-methylethyl)pyridin-2-yl]-4-cyclo-propylmethyloxy-1H-indazole trihydrochloride] showed a pKi of 6.84.

System in another series: not given
Experiment: not given
Conditions: not given
The term melting point denotes the temperature, or range, at which the solid turns liquid. For the compound `CC(C)(N)c1ccc(-c2ccc3[nH]ncc3c2-c2ccno2)cc1` (as salt: hydrochloride) [Compound 5-68, 5-[4-(1-Amino-1-methylethyl)phenyl]-4-(isoxazol-5-yl)-1H-indazole dihydrochloride], the melting point is 256 to 258 °C (dec.).
As to `CC(C)(N)c1ccc(-c2ccc3[nH]nc(C#N)c3c2)cc1` (as salt: hydrochloride) [Compound 5-13, 5-[4-(1-Amino-1-methylethyl)phenyl]-3-cyano-1H-indazole dihydrochloride], the melting point is 224 to 227 °C (dec.).
Same read-out and setting: next, `CCCOc1c(-c2ccc(C(C)(C)N)cc2)ccc2[nH]ncc12` (as salt: hydrochloride) [Compound 5-52, 5-[4-(1-Amino-1-methylethyl)phenyl]-4-n-propoxy-1H-indazole dihydrochloride]: 237 to 243 °C (dec.); `CCOc1c(-c2ccc(C(C)(C)N)cc2)ccc2[nH]ncc12` (as salt: hydrochloride) [Compound 5-49, 5-[4-(1-Amino-1-methylethyl)phenyl]-4-ethoxy-1H-indazole dihydrochloride]: 248 to 256 °C (dec.).
On the same count and under the same terms, the same measure for `COc1c(-c2ccc(C3(N)CCCC3)cn2)ccc2[nH]ncc12` (as salt: hydrochloride) [Compound 5-46, 5-[5-(1-Aminocyclopentyl)pyridin-2-yl]-4-methoxy-1H-indazole trihydrochloride]: 195 to 203 °C (dec.).
Consider `CC(C)Oc1c(-c2ccc(C(C)(C)N)cn2)ccc2[nH]ncc12` (as salt: hydrochloride) [Compound 5-50, 5-[5-(1-Amino-1-methylethyl)pyridin-2-yl]-4-isopropoxy-1H-indazole trihydrochloride], for which the melting point is 211 to 213 °C (dec.).
Regarding `CCOc1c(-c2ccc(C(N)(CC)CC)cn2)ccc2[nH]ncc12` (as salt: hydrochloride) [Compound 5-60, 5-[5-(1-Amino-1-ethylpropyl)pyridin-2-yl]-4-ethoxy-1H-indazole trihydrochloride], the melting point is 200 to 202 °C (dec.).
Regarding `NCc1ccc(-c2ccc3[nH]ncc3c2[N+](=O)[O-])cc1` (as salt: hydrochloride) [Compound 5-19, 5-[4-(Aminomethyl)phenyl]-4-nitro-1H-indazole dihydrochloride], the melting point was 269 to 274 °C (dec.).
Compound `Nc1c(-c2ccc(C3(N)CCCC3)cc2)ccc2[nH]ncc12` (as salt: hydrochloride) [Compound 5-21, 4-Amino-5-[4-(1-aminocyclopentyl)phenyl]-1H-indazole dihydrochloride] displayed a melting point of 234 to 237 °C.
On to `CC(C)(N)c1ccc(-c2ccc3[nH]ncc3c2OCC2CC2)nc1.Cl.Cl.Cl` [Compound 5-73, 5-[5-(1-Amino-1-methylethyl)pyridin-2-yl]-4-cyclo-propylmethyloxy-1H-indazole trihydrochloride], for which the melting point is 270 to 272 °C (dec.).
With `COC(=O)c1n[nH]c2ccc(-c3ccc(C(C)(C)N)cc3)cc12` (as salt: hydrochloride) [Compound 5-8, 5-[4-(1-Amino-1-methylethyl)phenyl]-3-methoxy-carbonyl-1H-indazole dihydrochloride], the melting point is 264 to 267 °C (dec.).
Still for that read-out and setting: next, `CC(C)(N)c1ccc(-c2ccc3[nH]ncc3c2CCO)cc1` (as salt: hydrochloride) [Compound 5-32, 5-[4-(1-Amino-1-methylethyl)phenyl]-4-(2-hydroxy-ethyl)-1H-indazole dihydrochloride]: 202 to 203 °C (dec.); `CCN(CC)c1c(-c2ccc(C(C)(C)N)cc2)ccc2[nH]ncc12` (as salt: hydrochloride) [Compound 5-31, 5-[4-(1-Amino-1-methylethyl)phenyl]-4-diethylamino-1H-indazole trihydrochloride]: 182 to 184 °C (dec.).
For `CCOc1c(-c2ccc(C(C)(C)N)cn2)ccc2[nH]ncc12` (as salt: hydrochloride) [Compound 5-47, 5-[5-(1-Amino-1-methylethyl)pyridin-2-yl]-4-ethoxy-1H-indazole trihydrochloride], the melting point fell in the range of 198 to 201 °C.
`CC(C)(N)c1ccc(-c2ccc3[nH]ncc3c2C#N)cc1` (as salt: hydrochloride) [Compound 5-36, 5-[4-(1-Amino-1-methylethyl)phenyl]-4-cyano-1H-indazole monohydrochloride] displayed a melting point of 270 to 272 °C.
In the case of `CC(C)(N)c1ccc(-c2ccc3[nH]ncc3c2C2CC2)nc1` (as salt: hydrochloride) [Compound 5-29, 5-[5-(1-Amino-1-methylethyl)pyridin-2-yl]-4-cyclo-propyl-1H-indazole trihydrochloride], the melting point was 209 to 213 °C (dec.).
`CC(N)c1ccc(-c2ccc3[nH]ncc3c2N(C)C)cc1` (stereo not drawn) (as salt: hydrochloride) [Compound 5-26, 5-[4-(1-Aminoethyl)phenyl]-4-dimethylamino-1H-indazole trihydrochloride]: the melting point is 180 to 182 °C (dec.).
As to `CN(C)/C=C/C(=O)c1c(-c2ccc(C(C)(C)NC(=O)OC(C)(C)C)cc2)ccc2nn(C3CCCCO3)cc12` (stereo not drawn) [Compound 29, 5-[4-(1-tert-butoxycarbonylamino-1-methylethyl)phenyl]-4-(3-dimethylaminoacryloyl)-2-(tetra-hydropyran-2-yl)-2H-indazole], the melting point is 191 to 194 °C.
On the same count and under the same terms, next, `CN(C)c1c(-c2ccc(C(C)(C)N)cc2)ccc2[nH]ncc12` (as salt: hydrochloride) [Compound 5-16, 5-[4-(1-Amino-1-methylethyl)phenyl]-4-dimethylamino-1H-indazole trihydrochloride]: 219 to 224 °C (dec.).
Still for that read-out and setting: the same measure for `CC(C)(N)c1ccc(-c2ccc3[nH]nc(CO)c3c2)cc1` (as salt: hydrochloride) [Compound 5-14, 5-[4-(1-Amino-1-methylethyl)phenyl]-3-hydroxymethyl-1H-indazole dihydrochloride]: 238 to 242 °C (dec.).
